# Data from patent US20080234232A1, “Methods and compositions for targeting AFAP” (priority 2007, published 2008).
# Key:
# Type in all cases: cell-based, mouse
# cSrc [1] = assay: Western blot of phospho-Src family (Y416) after PMA treatment; settings: 100 nM PMA 15 min
# Experimental: E) SYF, SYF/cSrc, and p85−/− were treated with 100 nM PMA for 15 minutes, 40 μg cell lysate resolved by SDS-PAGE and western blot analysis performed to evaluate phospho-Src family (Y416)(1:1000) and cSrc (1:500) as described in the methods section. Beta-actin (1:5000) was used as a loading control.
# All cells were cultured to 70-80% confluence, serum-starved for 16 hours, and treated as described above. The cells were lysed and western analysis performed as previously described (Guappone, A. C. et. al., 1997). Membranes were probed using the following antibodies diluted in 1× Tris-buffered saline plus 0.1% Tween-20 (TBS-T) containing 5% nonfat milk, except were indicated: 1:10000 AFAP-110 pAb (F1), 1:1000 Phospho-Src family Tyrosine 416 (Cell Signal) in 5% BSA, 1:500 cSrc (clone N-16: Santa Cruz Biotechnology), 1:1000 p85α (BD Biosciences), 1:1000 p110α (BD Biosciences), 1:1000 PKCα (BD Biosciences), and 1:5000 β-actin in 1% BSA (Sigma).
# cSrc [2] = assay: Immunofluorescence: translocation of cSrc from the perinuclear region to the cell periphery; settings: 100 nM PMA
# Experimental: FIG. 2: Inhibition of PI3K blocks translocation of cSrc from the perinuclear region of mouse embryo fibroblast in response to PMA treatment. SYF and p85−/− null cells were transiently transfected with cSrc and labeled for avian cSrc using EC10, an avian-specific monoclonal antibody (1:500). EC10 was visualized with anti-mouse Atexa Fluor 488 (false colored red for consistency). Cells treated with 100 nM PMA (panel b) induced translocation of cSrc to the cell periphery as indicated by the arrows. However, cells treated with 100 nM PMA in conjunction with 6 μM bisindolylmaleimide (panel c) or 10 μM LY (panel d) blocked the translocation of cSrc as indicated by the arrows. […] (n=nucleus) Bars represent 20 μM.
# SYF, SYF/cSrc, p85α+/+ and p85−/− cells were cultured in standard culture media. Transient transfections of SYF, SYF/cSrc, p85α+/+ cells for immunofluorescence were carried out using LipofectAMINE™ Reagent (Invitrogen) as per manufacturer's protocol. Briefly, Approximately 5.0-8.0×10^4 cells per well were transfected at 50-70% confluent on coverstips with 2-4 μg of plasmid DNA and incubated for 3-4 hours. Thirty-six hours after transfection, cells were serum starved for 12 hours, treated, and subsequently fixed and permeablized as previously described (Qian, Y. et. al., 1998). Cells were treated with a PKC activator, 100 nM PMA for 5 or 15 minutes or in combination with the following pretreatments; a PKC inhibitor, 6 μM bisindolylmaleimide [I] for six hours; or PI3K inhibitor, 10 μM LY294002 for six hours; 50 nM Wortmannin for 30 minutes; and/or a Src family inhibitor, 5 μM PP1 for six hours. For actin labeling, a 1:500 dilution of TRITC-phalloidin was used as labeled in the figures. Primary antibody concentrations used were diluted in 5% Bovine Serum Albumin (BSA) dissolved in 1× phosphate-buffered saline (PBS): EC10 mAb-1:500; Phospho-Src Family (Y416) pAb-1:250; Anti-PI-3,4,5-P3 mAb-1:100; Anti-AFAP-110 (F1)pAb-1:1000; Anti-cSrc pAb-1:500; Anti-flag-1:1000. […]
# PI3K [3] = assay: Immunofluorescence of Ptdlns-3,4,5-P3 production in SYF/cSrc cells; settings: 100 nM PMA
# Experimental: SYF/cSrc cells were serum-starved for 24 hours. Cells stimulated with 10% serum (panels c-f), 100 nM PMA for 5 (panels g-h), or 15 minutes (panels i-j); as well as treated with 100 nM PMA in combination with 6 μM bisindolylmaleimide [I] (panels k-I) or 50 nM wortmannin (panels m-n). Cells treated with 100 nM PMA in combination with 5 μM PP1 (panel o-p) and Ptdlns-3,4,5-P3 levels evaluated. Cells were immunolabeled with a PI-3,4,5-P3-specific antibody (Echelon, Inc.;1:100) and TRITC-phalloidin (1:500). Secondary antibody for anti-PI-3,4,5-P3 (1:100) was Alexa IgM 647 anti-mouse (1:200). Bars represent 20 μm.
# SYF, SYF/cSrc, p85α+/+ and p85−/− cells were cultured in standard culture media. Transient transfections of SYF, SYF/cSrc, p85α+/+ cells for immunofluorescence were carried out using LipofectAMINE™ Reagent (Invitrogen) as per manufacturer's protocol. Briefly, Approximately 5.0-8.0×10^4 cells per well were transfected at 50-70% confluent on coverstips with 2-4 μg of plasmid DNA and incubated for 3-4 hours. Thirty-six hours after transfection, cells were serum starved for 12 hours, treated, and subsequently fixed and permeablized as previously described (Qian, Y. et. al., 1998). Cells were treated with a PKC activator, 100 nM PMA for 5 or 15 minutes or in combination with the following pretreatments; a PKC inhibitor, 6 μM bisindolylmaleimide [I] for six hours; or PI3K inhibitor, 10 μM LY294002 for six hours; 50 nM Wortmannin for 30 minutes; and/or a Src family inhibitor, 5 μM PP1 for six hours. For actin labeling, a 1:500 dilution of TRITC-phalloidin was used as labeled in the figures. Primary antibody concentrations used were diluted in 5% Bovine Serum Albumin (BSA) dissolved in 1× phosphate-buffered saline (PBS): EC10 mAb-1:500; Phospho-Src Family (Y416) pAb-1:250; Anti-PI-3,4,5-P3 mAb-1:100; Anti-AFAP-110 (F1)pAb-1:1000; Anti-cSrc pAb-1:500; Anti-flag-1:1000. All fluorescent secondary and phalloidin antibodies were diluted 1:200 in 5% BSA, and are labeled according to figure legends. Cells were washed and mounted on slides with Fluoromount-G (Fisher). A Zeiss LSM 510 confocal microscope was used to scan images of about 1 μM in thickness. To prevent cross-contamination between the different fluorochromes, each channel was imaged sequentially using the multitrack recording module before merging the images. For all figures, representative cells are shown (>100 cells examined per image shown).
# Ptdlns-3,4,5-P3 production was measured using the anti-Ptdlns-3,4,5-P3 antibody (Echelon, inc.) for analysis by immunofluorescence and contrasted with stress filament integrity, measured using TRITC-phalloidin as previously described (Chen, R. et. al., 2002; Hama, H. et. al., 2004). SYF/cSrc cells were left untreated or treated with serum as controls for PI3K activation. […] In addition, SYF/cSrc cells were stimulated with PMA for 5 or 15 minutes.
# PI3K [4] = assay: Surrogate markers for PI3K activation in the MEF cell system; settings: PMA treatment
structure (smiles),measurement,setting,value
"CCCCCCCCCCCCCC(=O)O[C@@H]1[C@@H](C)[C@@]2(O)[C@@H](C=C(CO)C[C@]3(O)C(=O)C(C)=C[C@@H]23)[C@@H]2C(C)(C)[C@]12OC(C)=O [PMA, Phorbol 12-myristate 13-acetate]",tyrosine416 phosphorylation of cSrc,cSrc [1]; SYF/cSrc cells,induced
same,cSrc activation (western blot),cSrc [1]; mouse embryo fibroblasts lacking the p85 regulatory subunit,failed to induce
same,translocation of cSrc on PMA treatment,cSrc [2]; SYF cells transfected with cSrc,induced cSrc to translocate from the perinuclear region to the cell periphery
same,translocation of cSrc on PMA treatment,cSrc [2]; p85−/− cells,cSrc remained in the perinuclear region
same,"Ptdlns-3,4,5-P3 production",PI3K [3]; 5 minutes,able to induce
same,"Ptdlns-3,4,5-P3 levels",PI3K [3]; 15 minutes,consistently reduced
same,Akt phosphorylation on serine 473,PI3K [4],could induce an increase
same,stabilization of HIF-1α,PI3K [4],could induce
